According to patent US9290453B2 (Merck Sharp & Dohme Corp., priority 2010, dated 2016):
pKi: −log10 of the molar value.

The compounds below were run against T1, hCRTH2 (Homo sapiens, UniProt Q9Y5Y4) (assay: Radioligand Binding Assay B (scintillation proximity assay, [3H]-PGD2, HEK-hCRTH2 membranes)). Settings: Radioligand Binding Assay B (SPA), values in text.
T1 construct: expressed in transfected cells; host or cells: HEK (human embryonic kidney) cells expressing hCRTH2
T1 sequence (Q9Y5Y4 1-395): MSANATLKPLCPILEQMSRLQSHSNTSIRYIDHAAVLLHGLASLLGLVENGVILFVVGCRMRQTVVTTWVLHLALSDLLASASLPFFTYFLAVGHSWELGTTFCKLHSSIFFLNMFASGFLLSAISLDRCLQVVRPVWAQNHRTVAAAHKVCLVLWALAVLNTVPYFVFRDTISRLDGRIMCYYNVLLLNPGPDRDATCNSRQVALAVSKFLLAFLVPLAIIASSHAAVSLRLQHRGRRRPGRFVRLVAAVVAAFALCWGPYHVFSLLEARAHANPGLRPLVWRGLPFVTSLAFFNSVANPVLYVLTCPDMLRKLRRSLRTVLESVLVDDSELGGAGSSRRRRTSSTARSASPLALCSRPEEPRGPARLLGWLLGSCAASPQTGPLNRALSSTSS
Protocol: Radioligand binding also was performed using scintillation proximity assay (SPA) technology in a similar way as described above in Radioligand Binding Assay A with minor modification. Assays were done at room temperature in 10 mM HEPES pH 7.4, 1 mM EDTA containing 2 mM MnCl2 and 16 nM [^3H]-PGD2 (PerkinElmer, Waltham, Mass.) (164 Ci mmol^−1), in a final volume of 0.05 mL. Competing ligands were diluted in dimethylsulfoxide (Me2SO) and added using very low volumes (50 nL). The reaction was initiated by the addition of a mixture of 3.52 μg of membrane protein prepared from a human embryonic kidney (HEK)-hCRTH2 cell line adhered to 140 ug of wheatgerm agglutinin SPA beads (PerkinElmer). Total and non-specific binding were determined in the absence and the presence of 10 μM of a CRTH2 antagonist, respectively. The reaction was routinely conducted for 60 min at room temperature followed by centrifugation for 5 minutes at 1000 RPM. The radioactivity was measured with a TopCountNXT (PerkinElmer). Results determined using the SPA-based assay were similar to those from the filtration binding assay.
`Cc1ccccc1N1CCN(C(=O)c2ccc3nc(-c4ccc(F)cc4)c(CCCCC(=O)O)cc3c2)CC1` [Compound 5AT, 5-(2-(4-fluorophenyl)-6-(4-(o-tolyl)piperazine-1-carbonyl)quinolin-3-yl)pentanoic acid] was tested, and the pKi was 8.14.
In the case of `CC1(C)CC(NC(=O)c2ccc3nc(-c4ccc(Cl)cc4)c(CCCCC(=O)O)cc3c2)c2ccccc2O1` (stereo not drawn) [Compound 5BH, 5-(2-(4-chlorophenyl)-6-((2,2-dimethylchroman-4-yl)carbamoyl)quinolin-3-yl)pentanoic acid], the pKi was 7.56.
`Cc1cccc(N2CCN(C(=O)c3ccc4nc(-c5ccc(Cl)cc5)c(CCCCC(=O)O)cc4c3)CC2)c1` [Compound 5BR, 5-(2-(4-chlorophenyl)-6-(4-(m-tolyl)piperazine-1-carbonyl)quinolin-3-yl)pentanoic acid] was tested, and the pKi was 8.13.

Same assay, conditions: Table B, Radioligand Binding Assay B (SPA), rated A-D
`O=C(O)CCCCc1cc2cc(C(=O)N3CCC4(CC3)OCc3ccccc34)ccc2nc1-c1ccc(F)cc1` [Compound 5AQ, 5-(2-(4-fluorophenyl)-6-(3H-spiro[isobenzofuran-1,4′-piperidin]-1′-ylcarbonyl)quinolin-3-yl)pentanoic acid] showed a pKi of 7.70 to 8.68.
Compound `O=C(O)CCCCc1cc2cc(C(=O)N3CCN(c4ccccc4C(F)(F)F)CC3)ccc2nc1-c1ccc(F)cc1` [Compound 5AR, 5-(2-(4-fluorophenyl)-6-(4-(2-(trifluoromethyl)phenyl)piperazine-1-carbonyl)quinolin-3-yl)pentanoic acid] has a pKi of 7.70 to 8.68.
For `O=C(O)CCCCc1cc2cc(C(=O)N3CCN(c4ccccc4Cl)CC3)ccc2nc1-c1ccc(F)cc1` [Compound 5AS, 5-(6-(4-(2-chlorophenyl)piperazine-1-carbonyl)-2-(4-fluorophenyl)quinolin-3-yl)pentanoic acid], the pKi was 7.70 to 8.68.
`Cc1ccccc1N1CCN(C(=O)c2ccc3nc(-c4ccc(F)cc4)c(CCCCC(=O)O)cc3c2)CC1` [Compound 5AT, 5-(2-(4-fluorophenyl)-6-(4-(o-tolyl)piperazine-1-carbonyl)quinolin-3-yl)pentanoic acid] gave a pKi of 7.70 to 8.68.
With `Cc1cccc(N2CCN(C(=O)c3ccc4nc(-c5ccc(F)cc5)c(CCCCC(=O)O)cc4c3)CC2)c1` [Compound 5AU, 5-(2-(4-fluorophenyl)-6-(4-(m-tolyl)piperazine-1-carbonyl)quinolin-3-yl)pentanoic acid] the pKi was 7.70 to 8.68.
For `COc1ccc(N2CCN(C(=O)c3ccc4nc(-c5ccc(F)cc5)c(CCCCC(=O)O)cc4c3)CC2)cc1` [Compound 5AV, 5-(2-(4-fluorophenyl)-6-(4-(4-methoxyphenyl)piperazine-1-carbonyl)quinolin-3-yl)pentanoic acid], the pKi was 7.70 to 8.68.
`Cc1ccc(N2CCN(C(=O)c3ccc4nc(-c5ccc(F)cc5)c(CCCCC(=O)O)cc4c3)CC2)cc1` [Compound 5AW, 5-(2-(4-fluorophenyl)-6-(4-(p-tolyl)piperazine-1-carbonyl)quinolin-3-yl)pentanoic acid] was tested, and the pKi was 7.70 to 8.68.
`O=C(O)CCCCc1cc2cc(C(=O)N3CCN(c4ccc(F)cc4)CC3)ccc2nc1-c1ccc(F)cc1` [Compound 5AX, 5-(2-(4-fluorophenyl)-6-(4-(4-fluorophenyl)piperazine-1-carbonyl)quinolin-3-yl)pentanoic acid] was tested, and the pKi was 7.70 to 8.68.
In the case of `O=C(O)CCCCc1cc2cc(C(=O)N[C@@H]3CCCc4cc(F)ccc43)ccc2nc1-c1ccc(Cl)cc1` [Compound 5AY, (R)-5-(2-(4-chlorophenyl)-6-((6-fluoro-1,2,3,4-tetrahydronaphthalen-1-yl)carbamoyl)quinolin-3-yl)pentanoic acid], the pKi was 7.70 to 8.68.
In the case of `O=C(O)CCCCc1cc2cc(C(=O)N[C@@H]3CCCc4ccccc43)ccc2nc1-c1ccc(Cl)cc1` [Compound 5AZ, (R)-5-(2-(4-chlorophenyl)-6-((1,2,3,4-tetrahydronaphthalen-1-yl)carbamoyl)quinolin-3-yl)pentanoic acid], the pKi was 7.70 to 8.68.
For `CN(Cc1ccc(F)cc1)C(=O)c1ccc2nc(-c3ccc(F)cc3)c(CCCCC(=O)O)cc2c1` [Compound 5Ai, 5-(6-((4-fluorobenzyl)(methyl)carbamoyl)-2-(4-fluorophenyl)quinolin-3-yl)pentanoic acid], the pKi was 7.70 to 8.68.
Work on `N#Cc1ccccc1N1CCN(C(=O)c2ccc3nc(-c4ccc(F)cc4)c(CCCCC(=O)O)cc3c2)CC1` [Compound 5Ao, 5-(6-(4-(2-cyanophenyl)piperazine-1-carbonyl)-2-(4-fluorophenyl)quinolin-3-yl)pentanoic acid] yielded a pKi of 7.70 to 8.68.
`O=C(O)CCCCc1cc2cc(C(=O)N[C@@H]3CCOc4ccccc43)ccc2nc1-c1ccc(Cl)cc1` [Compound 5BA, (R)-5-(2-(4-chlorophenyl)-6-(chroman-4-ylcarbamoyl)quinolin-3-yl)pentanoic acid] was tested, and the pKi was 7.70 to 8.68.
With `O=C(O)CCCCc1cc2cc(C(=O)N[C@@H]3COc4ccccc43)ccc2nc1-c1ccc(Cl)cc1` [Compound 5BB, (S)-5-(2-(4-chlorophenyl)-6-((2,3-dihydrobenzofuran-3-yl)carbamoyl)quinolin-3-yl)pentanoic acid] the pKi was 7.70 to 8.68.
Compound `C[C@@H](NC(=O)c1ccc2nc(-c3ccc(Cl)cc3)c(CCCCC(=O)O)cc2c1)c1ccc(F)cc1` [Compound 5BC, (R)-5-(2-(4-chlorophenyl)-6-((1-(4-fluorophenyl)ethyl)carbamoyl)quinolin-3-yl)pentanoic acid] has a pKi of 7.70 to 8.68.
In the case of `O=C(O)CCCCc1cc2cc(C(=O)N3CCN(c4ccccc4)CC3)ccc2nc1-c1ccc(Cl)cc1` [Compound 5BD, 5-(2-(4-chlorophenyl)-6-(4-phenylpiperazine-1-carbonyl)quinolin-3-yl)pentanoic acid], the pKi was 7.70 to 8.68.
For `O=C(O)CCCCc1cc2cc(C(=O)N3CC(c4cccc(F)c4)C3)ccc2nc1-c1ccc(Cl)cc1` [Compound 5BE, 5-(2-(4-chlorophenyl)-6-(3-(3-fluorophenyl)azetidine-1-carbonyl)quinolin-3-yl)pentanoic acid], the pKi was 7.70 to 8.68.
Compound `O=C(O)CCCCc1cc2cc(C(=O)N3CC[C@@H](c4ccccc4)C3)ccc2nc1-c1ccc(Cl)cc1` [Compound 5BF, (S)-5-(2-(4-chlorophenyl)-6-(3-phenylpyrrolidine-1-carbonyl)quinolin-3-yl)pentanoic acid] has a pKi of 7.70 to 8.68.
`CN(Cc1ccc(F)cc1)C(=O)c1ccc2nc(-c3ccc(Cl)cc3)c(CCCCC(=O)O)cc2c1` [Compound 5BG, 5-(2-(4-chlorophenyl)-6-((4-fluorobenzyl)(methyl)carbamoyl)quinolin-3-yl)pentanoic acid] was tested, and the pKi was 7.70 to 8.68.
`CC1(C)CC(NC(=O)c2ccc3nc(-c4ccc(Cl)cc4)c(CCCCC(=O)O)cc3c2)c2ccccc2O1` (stereo not drawn) [Compound 5BH, 5-(2-(4-chlorophenyl)-6-((2,2-dimethylchroman-4-yl)carbamoyl)quinolin-3-yl)pentanoic acid] was tested, and the pKi was 6.70 to 7.70.
Work on `O=C(O)CCCCc1cc2cc(C(=O)NC3CC(=O)Nc4ccccc43)ccc2nc1-c1ccc(Cl)cc1` (stereo not drawn) [Compound 5BJ, 5-(2-(4-chlorophenyl)-6-((2-oxo-1,2,3,4-tetrahydroquinolin-4-yl)carbamoyl)quinolin-3-yl)pentanoic acid] yielded a pKi of 7.70 to 8.68.
Work on `O=C(O)CCCCc1cc2cc(C(=O)N3CC(c4ccccc4)C3)ccc2nc1-c1ccc(Cl)cc1` [Compound 5BK, 5-(2-(4-chlorophenyl)-6-(3-phenylazetidine-1-carbonyl)quinolin-3-yl)pentanoic acid] yielded a pKi of 7.70 to 8.68.
With `O=C(O)CCCCc1cc2cc(C(=O)NCc3ccccc3)ccc2nc1-c1ccc(Cl)cc1` [Compound 5BL, 5-(6-(benzylcarbamoyl)-2-(4-chlorophenyl)quinolin-3-yl)pentanoic acid] the pKi was 7.70 to 8.68.
In the case of `N#Cc1ccccc1N1CCN(C(=O)c2ccc3nc(-c4ccc(Cl)cc4)c(CCCCC(=O)O)cc3c2)CC1` [Compound 5BM, 5-(2-(4-chlorophenyl)-6-(4-(2-cyanophenyl)piperazine-1-carbonyl)quinolin-3-yl)pentanoic acid], the pKi was 7.70 to 8.68.
`COc1ccccc1C1CCN(C(=O)c2ccc3nc(-c4ccc(Cl)cc4)c(CCCCC(=O)O)cc3c2)CC1` [Compound 5BN, 5-(2-(4-chlorophenyl)-6-(4-(2-methoxyphenyl)piperidine-1-carbonyl)quinolin-3-yl)pentanoic acid] gave a pKi of 7.70 to 8.68.
In the case of `O=C(O)CCCCc1cc2cc(C(=O)N3CCN(c4ccccc4Cl)CC3)ccc2nc1-c1ccc(Cl)cc1` [Compound 5BP, 5-(2-(4-chlorophenyl)-6-(4-(2-chlorophenyl)piperazine-1-carbonyl)quinolin-3-yl)pentanoic acid], the pKi was 6.70 to 7.70.
Work on `Cc1ccccc1N1CCN(C(=O)c2ccc3nc(-c4ccc(Cl)cc4)c(CCCCC(=O)O)cc3c2)CC1` [Compound 5BQ, 5-(2-(4-chlorophenyl)-6-(4-(o-tolyl)piperazine-1-carbonyl)quinolin-3-yl)pentanoic acid] yielded a pKi of 7.70 to 8.68.
With `Cc1cccc(N2CCN(C(=O)c3ccc4nc(-c5ccc(Cl)cc5)c(CCCCC(=O)O)cc4c3)CC2)c1` [Compound 5BR, 5-(2-(4-chlorophenyl)-6-(4-(m-tolyl)piperazine-1-carbonyl)quinolin-3-yl)pentanoic acid] the pKi was 7.70 to 8.68.
Compound `COc1ccc(N2CCN(C(=O)c3ccc4nc(-c5ccc(Cl)cc5)c(CCCCC(=O)O)cc4c3)CC2)cc1` [Compound 5BS, 5-(2-(4-chlorophenyl)-6-(4-(4-methoxyphenyl)piperazine-1-carbonyl)quinolin-3-yl)pentanoic acid] has a pKi of 7.70 to 8.68.
`Cc1ccc(N2CCN(C(=O)c3ccc4nc(-c5ccc(Cl)cc5)c(CCCCC(=O)O)cc4c3)CC2)cc1` [Compound 5BT, 5-(2-(4-chlorophenyl)-6-(4-(p-tolyl)piperazine-1-carbonyl)quinolin-3-yl)pentanoic acid] showed a pKi of 7.70 to 8.68.
